Test results as given in ChEMBL document CHEMBL4043233, “A structural investigation of FISLE-412, a peptidomimetic compound derived from saquinavir that targets lupus autoantibodies” (Bioorg Med Chem Lett, 2017).
Active and inactive are the calls of the source. The calls are words filed in the database; no cut-off is given here.

Key:
[1] = (§1) Inhibition of D-DWEYS binding to mouse anti-dsDNA monoclonal antibody R4A pretreated for 1 hr followed by D-DWEYS peptide addition measured after 1 hr by ELISA
Mus musculus [2] = organism: Mus musculus; test: as §1
Mus musculus [3] = organism: Mus musculus; test: Inhibition of mouse glomerular binding to mouse anti-dsDNA monoclonal antibody R4A at 50 uM pretreated for 1 hr followed by glomerular addition by microscopic analysis

SMILES | IC50 ([1]; read-out: IC50) | IC50 [1] | also measured
CC(C)(C)NC[C@@H]1CC2CCCCC2CN1C[C@@H](O)[C@H](Cc1ccccc1)NC[C@H](CCN)NC(=O)C1CCCCN1 (stereo partly drawn) | 10 µM | – | –
CC(C)(C)NC[C@@H]1CC2CCCCC2CN1C[C@@H](O)[C@H](Cc1ccccc1)NC[C@H](CCN)NC(=O)c1ccccn1 (stereo partly drawn) | 12.5 µM | – | –
CC(C)(C)NC[C@@H]1CC2CCCCC2CN1C[C@@H](O)[C@H](Cc1ccccc1)NC(=O)[C@H](CCN)NC(=O)c1nc2ccccc2cc1O (stereo partly drawn) | 19.7 µM | – | –
CC(C)(C)NC[C@@H]1CC2CCCCC2CN1C[C@@H](O)[C@@H](N)Cc1ccccc1 (stereo partly drawn) | – | – | inhibition (Mus musculus [2]; concentration not given here): < 20%
OCC1Nc2ccccc2CC1O (stereo not drawn) | – | Not Active | –
CC(C)(C)NC(=O)[C@@H]1CC2CCCCC2CN1C[C@@H](O)[C@H](Cc1ccccc1)NC(=O)c1ccc2ccccc2c1 (stereo partly drawn) | > 100 µM | – | –
CC(C)(C)NC(=O)[C@@H]1CC2CCCCC2CN1C[C@@H](O)[C@H](Cc1ccccc1)NC(=O)[C@H](CCN)NCc1ccc2ccccc2n1 (stereo partly drawn) | – | Not Active | –
CC(C)(C)NC[C@@H]1CC2CCCCC2CN1C[C@@H](O)[C@H](Cc1ccccc1)NC[C@H](CCN)NCC1CCc2ccccc2N1 (stereo partly drawn) | 6.9 µM | – | –
CC(C)(C)NC[C@@H]1CC2CCCCC2CN1C[C@@H](O)[C@H](Cc1ccccc1)NC[C@H](CCN)NCC1Nc2ccccc2CC1O (stereo partly drawn) | 4.5 µM | – | –
NCC[C@@H](CN[C@@H](Cc1ccccc1)[C@H](O)CN1CCOCC1)NC(=O)c1ccc2ccccc2c1 | – | Not Active | –
O=C(O)c1ccc2ccccc2n1 [QUINALDIC ACID] | – | Not Active | –
CC(C)(C)NC[C@@H]1CC2CCCCC2CN1C[C@@H](O)[C@H](Cc1ccccc1)NC[C@H](CCN)NC(=O)c1ccc2ccccc2c1 (stereo partly drawn) | 3.7 µM | – | inhibition (Mus musculus [3]): Active; inhibition (Mus musculus [2]): Dose-dependent effect
CC(C)(C)NC(=O)[C@@H]1CC2CCCCC2CN1C[C@@H](O)[C@H](Cc1ccccc1)NC(=O)c1ccc2ccccc2n1 (stereo partly drawn) | 88.7 µM | – | –
CC(C)(C)NC[C@@H]1CC2CCCCC2CN1C[C@@H](O)[C@H](Cc1ccccc1)NC(=O)c1ccc2ccccc2c1 (stereo partly drawn) | 6.8 µM | – | –
CC(C)(C)NC[C@@H]1CC2CCCCC2CN1C[C@@H](O)[C@H](Cc1ccccc1)NC[C@H](CCN)NC(=O)c1ccc2ccccc2n1 (stereo partly drawn) | 7.3 µM | – | –
NCC[C@@H](CN[C@H](CO)Cc1ccccc1)NCC1CCc2ccccc2N1 (stereo partly drawn) | – | Not Active | –
CC(C)(C)NC[C@@H]1CC2CCCCC2CN1C[C@@H](O)[C@H](Cc1ccccc1)NC(=O)c1ccc2ccccc2n1 (stereo partly drawn) | 5.8 µM | – | inhibition (Mus musculus [3]): Active; inhibition (Mus musculus [2]): Dose-dependent effect
CC(C)(C)NC[C@@H]1CC2CCCCC2CN1 (stereo partly drawn) | – | Not Active | –
CC(C)(C)NC[C@@H]1CC2CCCCC2CN1C[C@@H](O)[C@H](Cc1ccccc1)NC[C@@H](N)CCN (stereo partly drawn) | 27.3 µM | – | –
